{"source": "paper PMC4841940", "about": "(Molecular cell, 2016)", "key": {"[1]": {"tested_on": "AF9 recruitment to genes in RAW264.7 cells", "test": "FLAG-AF9 ChIP-seq in RAW264.7 cells", "type": "cell-based, mouse", "conditions": "10mM crotonate pre-treatment then LPS"}, "[2]": {"tested_on": "FLAG-AF9 (WT) recruitment in RAW264.7 cells", "test": "FLAG-ChIP-qPCR, FLAG-AF9", "type": "cell-based, mouse", "conditions": "increasing concentrations of crotonate, then LPS; Rsad2, Il6, Ifit1, Cmpk2, Gbp2"}, "[3]": {"tested_on": "FLAG-AF9 (F59A) recruitment in RAW264.7 cells", "test": "FLAG-ChIP-qPCR, FLAG-AF9", "type": "cell-based, mouse", "conditions": "increasing concentrations of crotonate, then LPS; Rsad2, Il6, Ifit1, Cmpk2, Gbp2"}, "[4]": {"tested_on": "RAW264.7 cells (parental)", "test": "qRT-PCR of crotonate-responsive genes, parental cells", "type": "cell-based, mouse", "conditions": "crotonate pre-treatment before LPS"}, "RAW264.7 cells, AF9 KO": {"tested_on": "RAW264.7 cells, AF9 KO", "test": "qRT-PCR of crotonate-responsive genes, AF9 knockout", "type": "cell-based, mouse", "conditions": "crotonate pre-treatment before LPS"}, "[5]": {"tested_on": "RAW264.7 cells, AF9KO + WT", "test": "qRT-PCR, AF9 KO with wild type AF9 addback", "type": "cell-based, mouse", "conditions": "crotonate pre-treatment before LPS"}, "[6]": {"tested_on": "RAW264.7 cells, AF9KO + F59A", "test": "qRT-PCR, AF9 KO with F59A addback", "type": "cell-based, mouse", "conditions": "crotonate pre-treatment before LPS"}, "[7]": {"tested_on": "histone crotonylation (H3K18cr) / crotonyl-CoA", "conditions": "ref Sabari et al., 2015, cited from earlier work"}, "[8]": {"biological_target": "second bromodomain of BRD3 (UniProt Q15059)", "sequence (Q15059 307-416)": "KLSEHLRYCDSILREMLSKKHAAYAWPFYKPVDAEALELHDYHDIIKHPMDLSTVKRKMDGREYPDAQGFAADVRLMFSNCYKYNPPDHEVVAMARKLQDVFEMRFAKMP", "test": "ITC"}, "[9]": {"biological_target": "AF9 YEATS domain, wild type (UniProt P42568)", "sequence (P42568 1-138)": "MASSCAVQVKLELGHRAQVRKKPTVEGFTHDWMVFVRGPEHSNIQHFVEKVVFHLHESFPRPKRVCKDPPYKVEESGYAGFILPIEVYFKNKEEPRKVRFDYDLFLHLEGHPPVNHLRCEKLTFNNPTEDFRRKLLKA", "test": "ITC"}}, "note": "Entries after “also recorded” stand apart in the source; their conditions may differ.", "data": [{"compound": "C/C=C/C(=O)O", "note": "[crotonate]", "values": [{"measurement": "FLAG-AF9 ChIP-seq signal", "setting": "[1]; metagene analysis", "value": "FLAG-AF9 signal was higher with crotonate treatment only for crotonate responsive genes"}, {"measurement": "mean fold-change in FLAG-AF9 RPKM, crotonate unresponsive genes", "setting": "[1]; ± 1kb TSS, 233 genes", "value": 0.92, "unit": "fold"}, {"measurement": "AF9 (WT) ChIP-qPCR signal", "setting": "[2]", "value": "AF9 signal increases with increasing concentrations of crotonate"}, {"measurement": "AF9 (F59A) ChIP-qPCR signal, crotonate", "setting": "[3]", "value": "the F59A mutant is unresponsive"}, {"measurement": "expression of Ccl3 (non-responsive gene)", "setting": "[4]", "value": "unaffected by crotonate pre-treatment"}, {"measurement": "crotonate response in AF9 KO cells", "setting": "RAW264.7 cells, AF9 KO", "value": "significantly reduced response; also recorded: significantly reduced the crotonate response in our model system, but did not abolish it completely"}, {"measurement": "rescue of crotonate response, wild type AF9 addback", "setting": "[5]", "value": "addback of wild type AF9 but not mutant AF9 (F59A) rescued this reduction"}, {"measurement": "rescue of crotonate response, AF9 (F59A) addback", "setting": "[6]", "value": "not mutant AF9 (F59A) rescued this reduction"}, {"measurement": "effect on crotonyl-CoA and acetyl-CoA", "setting": "[7]; cellular concentrations", "value": "selectively increases cellular concentrations of crotonyl-CoA, the high-energy donor of crotonyl, while leaving acetyl-CoA, the high-energy donor of acetyl, unaffected"}, {"measurement": "effect on Kcr vs Kac", "setting": "[7]", "value": "specifically enhances Kcr, and does not significantly affect Kac"}]}, {"compound": "H3K18bu peptide (acylation series of Figure 4C)", "values": [{"measurement": "fold reduced affinity against H3K18ac", "setting": "[8]", "value": 38, "unit": "fold"}]}, {"compound": "H3K18pr peptide (acylation series of Figure 4C)", "values": [{"measurement": "fold reduced affinity against H3K18ac", "setting": "[8]", "value": 4, "unit": "fold"}]}, {"compound": "histone H3_(1–15)K9ac peptide (from UniProt P68431 2-16)", "values": [{"measurement": "Kd", "setting": "[9]", "value": 5, "unit": "µM"}]}, {"compound": "histone H3_(1–15)K9su peptide (from UniProt P68431 2-16)", "values": [{"measurement": "Kd", "setting": "[9]", "value": 500, "unit": "µM"}]}]}
